In assay [1] the target is T1, ACSS2 (Homo sapiens, UniProt Q9NR19). The assay can be described thus: cell-based.
Description: The cellular activity of ACSS2 was based on tracing the incorporation of carbons from ^13C-Acetate into fatty-acids.
BT474/MDA-MB-468 cells growing in DMEM+25 mM D-glucose+1 mM sodium pyruvate+10% FBS+2 mM glutamine were plated in 12-well plates at 0.4×10^6 cells/well. The cells were then incubated at CO2 incubator for 24 hrs at hypoxic conditions (1% O2) before treated with compounds. At day 2, the medium was replaced to DMEM medium containing 15 mM Glucose, 1 mM Pyruvate, 0.65 mM Glutamine, 1% Dialyzed serum, 3.5 ug/ml Biotin, 0.2 mM ^13C-Acetate and various concentrations of the compounds. The cells were incubated for 5 hours at CO2 incubator in hypoxic conditions (1% O2). At the end of the 5 hours' incubation, the cells were washed twice with cold PBS, harvested in 1 ml PBS and transfer into V-shaped HPLC glass vials and centrifuge for 10 min at 600 g at 4 C. The supernatant was removed, and the cells' pellets were stored at −80° C. until taken for saponification.
The cells pellets were resuspended with 0.5 ml of the 90% Methanol, 10% H2O, 0.3M NaOH mixture and incubated at 80° C. for 60 min. Following the incubation, 50 μl formic acid and 0.4 ml hexane were added and the mixture was vortexed for 2 minutes. The vials were left few minutes for phases separation and then 200 μl of the top hexane phase extracted to a new glass vial. The hexane was dried under nitrogen and reconstituted in 100 μl of Methanol: Acetonitrile 5:3 mixture. The solution transferred to Eppendorf tubes, spun down at 17000G for 20 min and transferred to LC-MS vials.
The analysis was performed with Thermo Q Exactive mass spectrometer with HESI probe and Dionex Ultimate 3000 UHPLC system. The separations were performed on Phenomenex Kintex 2.6u XB-C18 100A 150×2.10 mm column by injecting 5 ul of each sample. The chromatography started with a linear gradient from 85% to 100% of organic solvent (Methanol: Acetonitrile 1:1) versus 10 mM Ammonium Acetate buffer pH 4.7 for 3.5 minutes, followed by 4.5 minutes of isocratic 100% organic solvent and then 3 minutes of isocratic initial conditions, at a flow rate of 0.3 ul/min. The MS source conditions that were used: capillary temperature 325° C., sheath flow 25, aux flow 15, spray voltage 3.8 kV, aux temperature 300° C. The data collected from Negative ion mode at resolution of 70000 at Full-MS mode in 75-1000 m/z range.
The analysis of ^13C acetate incorporation into fatty acids (palmitate, myristate and stearate) performed on TraceFinder 3.2.512.0. The negative control areas and ^13C isotopic theoretical natural abundance were subtracted from the samples areas. Total ^13C incorporation for each fatty-acid (palmitate, myristate and stearate) was calculated and presented as percentage of the total amount.
For assay [2], the target named is T1, ACSS2. As to the kind of experiment: Acyl-CoA synthetases selectivity panel: ACSS2. The following applies: human recombinant protein, substrate acetate, AMP readout by HPLC; read-out: HPLC based activity assays IC50 (UM) ACSS2. Also noted: purchased Cusabio, China. Type of assay: biochemical. From the text: (§1) The biochemical assays for testing the selectivity of the compounds according to this invention, were done using human recombinant proteins (Cusabio, China). The readout of the assays was AMP levels, the […] of the reactions, by HPLC method. The acyl substrates (Sigma-Aldrich) of the assays were as followed: ACSS1/ACSS2—Acetate, AACS-Acetoacetyl, ACSF2—Octanoate and ACSL5—Palmitate. The protein in this panel include ACSS1, the closest homolog of ACSS2, in addition to representative short/medium/long chain acyl-CoA syntatases.

Assay [3] deals with T2, AACS (Homo sapiens, UniProt Q86V21).
T2 construct: purchased Cusabio, China
T2 sequence (Q86V21 1-672): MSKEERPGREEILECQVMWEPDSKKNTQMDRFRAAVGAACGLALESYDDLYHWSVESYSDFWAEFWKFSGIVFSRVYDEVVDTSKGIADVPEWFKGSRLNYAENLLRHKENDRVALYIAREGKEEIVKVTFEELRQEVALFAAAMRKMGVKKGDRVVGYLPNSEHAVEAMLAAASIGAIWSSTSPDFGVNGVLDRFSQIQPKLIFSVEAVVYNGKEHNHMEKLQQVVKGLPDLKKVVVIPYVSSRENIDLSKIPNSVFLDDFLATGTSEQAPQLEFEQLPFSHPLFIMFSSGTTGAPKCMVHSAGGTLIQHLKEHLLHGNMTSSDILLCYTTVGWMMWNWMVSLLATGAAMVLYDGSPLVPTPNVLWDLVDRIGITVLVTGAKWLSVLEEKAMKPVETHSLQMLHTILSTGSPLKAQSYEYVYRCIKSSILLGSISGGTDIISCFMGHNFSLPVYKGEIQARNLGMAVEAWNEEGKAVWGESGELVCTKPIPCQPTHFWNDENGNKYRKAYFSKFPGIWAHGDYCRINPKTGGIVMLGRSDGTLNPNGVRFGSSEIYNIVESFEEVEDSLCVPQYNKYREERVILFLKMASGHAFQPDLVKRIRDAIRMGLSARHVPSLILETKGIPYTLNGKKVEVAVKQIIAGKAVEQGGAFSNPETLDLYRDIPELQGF
As to the kind of experiment: Acyl-CoA synthetases selectivity panel: AACS. The class given is biochemical. The settings on record: human recombinant protein, substrate acetoacetyl, AMP readout by HPLC; read-out: HPLC based activity assays IC50 (UM) AACS.
Description: as §1

Assay [4] addresses T3, ACSL5 (Homo sapiens, UniProt Q9ULC5).
T3 construct: purchased Cusabio, China
T3 sequence (Q9ULC5 1-683): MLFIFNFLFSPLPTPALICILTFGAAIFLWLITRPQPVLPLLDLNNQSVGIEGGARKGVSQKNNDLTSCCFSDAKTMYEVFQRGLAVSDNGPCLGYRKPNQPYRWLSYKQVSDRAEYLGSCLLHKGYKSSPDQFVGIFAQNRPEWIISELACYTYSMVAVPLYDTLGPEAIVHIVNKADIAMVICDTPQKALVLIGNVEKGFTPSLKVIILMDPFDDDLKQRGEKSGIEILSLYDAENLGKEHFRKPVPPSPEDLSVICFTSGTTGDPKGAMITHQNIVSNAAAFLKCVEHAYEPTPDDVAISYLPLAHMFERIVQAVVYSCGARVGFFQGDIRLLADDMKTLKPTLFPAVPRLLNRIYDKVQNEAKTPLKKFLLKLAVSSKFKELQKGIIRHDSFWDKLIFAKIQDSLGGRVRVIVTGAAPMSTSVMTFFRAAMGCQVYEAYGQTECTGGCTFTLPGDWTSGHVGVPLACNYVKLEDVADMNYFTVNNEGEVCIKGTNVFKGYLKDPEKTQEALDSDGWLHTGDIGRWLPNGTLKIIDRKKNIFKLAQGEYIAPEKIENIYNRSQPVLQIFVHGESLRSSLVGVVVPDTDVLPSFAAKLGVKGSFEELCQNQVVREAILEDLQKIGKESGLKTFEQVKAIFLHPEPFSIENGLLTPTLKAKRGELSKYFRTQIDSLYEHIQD
The assay can be described thus: Acyl-CoA synthetases selectivity panel: ACSL5. The class given is biochemical. The following applies: human recombinant protein, substrate palmitate, AMP readout by HPLC; read-out: HPLC based activity assays IC50 (UM) ACSL5.
Description: as §1

Assay [5] concerns the target T4, ACSS1 (Homo sapiens, UniProt Q9NUB1).
T4 construct: purchased Cusabio, China
T4 sequence (Q9NUB1 38-689): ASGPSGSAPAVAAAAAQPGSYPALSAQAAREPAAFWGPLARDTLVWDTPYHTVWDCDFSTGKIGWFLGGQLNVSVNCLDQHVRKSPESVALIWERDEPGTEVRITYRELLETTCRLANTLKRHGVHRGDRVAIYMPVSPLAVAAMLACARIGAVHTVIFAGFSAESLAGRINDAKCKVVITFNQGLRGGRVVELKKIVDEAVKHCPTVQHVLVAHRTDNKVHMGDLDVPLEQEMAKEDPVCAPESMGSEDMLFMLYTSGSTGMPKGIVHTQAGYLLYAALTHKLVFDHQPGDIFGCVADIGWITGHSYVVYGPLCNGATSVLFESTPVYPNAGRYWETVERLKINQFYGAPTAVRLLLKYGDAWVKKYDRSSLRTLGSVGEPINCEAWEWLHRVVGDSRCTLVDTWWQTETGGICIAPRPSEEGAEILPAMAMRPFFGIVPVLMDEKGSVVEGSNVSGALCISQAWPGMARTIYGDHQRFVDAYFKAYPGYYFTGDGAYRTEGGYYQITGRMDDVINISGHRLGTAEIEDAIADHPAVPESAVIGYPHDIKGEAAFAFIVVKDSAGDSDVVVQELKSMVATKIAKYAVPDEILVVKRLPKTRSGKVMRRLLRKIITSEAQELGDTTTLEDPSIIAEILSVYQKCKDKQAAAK
The assay can be described thus: Acyl-CoA synthetases selectivity panel: ACSS1. The class given is biochemical. The settings on record: human recombinant protein, substrate acetate, AMP readout by HPLC; read-out: HPLC based activity assays IC50 (UM) ACSS1.
Description: as §1

The target in assay [6] is T5, ACSF2 (Homo sapiens, UniProt Q96CM8).
T5 construct: purchased Cusabio, China
T5 sequence (Q96CM8 42-615): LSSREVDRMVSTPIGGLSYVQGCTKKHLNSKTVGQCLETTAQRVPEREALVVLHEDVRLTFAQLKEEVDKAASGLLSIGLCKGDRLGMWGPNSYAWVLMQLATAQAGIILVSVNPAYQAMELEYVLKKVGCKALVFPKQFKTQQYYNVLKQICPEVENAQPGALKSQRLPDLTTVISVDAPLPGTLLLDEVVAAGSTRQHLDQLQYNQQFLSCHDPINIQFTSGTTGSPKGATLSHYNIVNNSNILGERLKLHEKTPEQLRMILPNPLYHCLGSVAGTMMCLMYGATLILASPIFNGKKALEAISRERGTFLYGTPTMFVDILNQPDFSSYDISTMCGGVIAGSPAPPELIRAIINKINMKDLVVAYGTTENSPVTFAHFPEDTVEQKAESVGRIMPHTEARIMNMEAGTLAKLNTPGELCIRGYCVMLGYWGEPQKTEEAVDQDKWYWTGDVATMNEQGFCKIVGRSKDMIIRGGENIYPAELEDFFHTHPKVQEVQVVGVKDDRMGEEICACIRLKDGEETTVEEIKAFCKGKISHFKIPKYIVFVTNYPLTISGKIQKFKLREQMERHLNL
As to the kind of experiment: Acyl-CoA synthetases selectivity panel: ACSF2. Type of assay: biochemical. The settings on record: human recombinant protein, substrate octanoate, AMP readout by HPLC; read-out: HPLC based activity assays IC50 (UM) ACSF2.
Description: as §1

The target in assay [7] is T1, ACSS2. The assay can be described thus: biochemical.
Description: The assay is based on a coupling reaction with Pyrophosphatase: ACSS2 is converting ATP+CoA+Acetate=>AMP+pyrophosphate+Acetyl-CoA (Ac-CoA). Pyrophosphatase converts pyrophosphate, a product of the ACSS2 reaction, to phosphate which can be detected by measuring the absorbance at 620 nm after incubation with the Biomol green reagent (Enzo life Science, BML-AK111).
At the end of the reaction, Biomol Green was added for 30 minutes at RT and the activity was measured by reading the absorbance at 620 nm.

The results in this text go back to patent US20250186433A1, “ACSS2 INHIBITORS AND METHODS OF USE THEREOF” (EpiVario, Inc., priority 2017, published 2025).

A word on the pIC50: it is the IC50 on a negative log10 scale, so that one unit is a factor of ten.

pIC50: −log10 of the molar value.

T1 sequence (Q9NR19 whole entry): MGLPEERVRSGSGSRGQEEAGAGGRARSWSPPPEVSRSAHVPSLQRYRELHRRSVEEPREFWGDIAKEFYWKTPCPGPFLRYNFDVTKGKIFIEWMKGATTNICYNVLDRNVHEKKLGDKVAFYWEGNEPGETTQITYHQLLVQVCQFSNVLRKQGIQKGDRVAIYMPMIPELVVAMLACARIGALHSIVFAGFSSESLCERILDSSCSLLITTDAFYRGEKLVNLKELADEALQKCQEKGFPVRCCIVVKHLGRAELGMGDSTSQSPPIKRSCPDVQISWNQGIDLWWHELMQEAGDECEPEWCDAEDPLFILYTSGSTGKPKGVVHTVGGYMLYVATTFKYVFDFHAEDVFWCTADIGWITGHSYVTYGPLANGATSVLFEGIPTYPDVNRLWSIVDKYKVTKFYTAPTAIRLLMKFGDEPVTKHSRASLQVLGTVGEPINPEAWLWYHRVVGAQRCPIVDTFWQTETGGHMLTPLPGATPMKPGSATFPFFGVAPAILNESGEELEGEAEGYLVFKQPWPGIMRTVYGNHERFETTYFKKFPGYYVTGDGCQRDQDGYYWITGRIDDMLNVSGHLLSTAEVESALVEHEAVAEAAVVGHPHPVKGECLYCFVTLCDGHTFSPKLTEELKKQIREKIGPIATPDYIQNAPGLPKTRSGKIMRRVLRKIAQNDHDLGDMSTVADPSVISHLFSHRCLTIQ

In the case of `CC1=NN(c2cccc(C(F)(F)F)c2)C(=O)C1C(=O)Nc1cccc(-c2cnccn2)c1` (centres unmarked) [compound 166], in assay [1], the negative logarithm of the IC50 (pIC50) was < 6.00.

Turning to `CC1=NN(c2ccccc2)C(=O)C1C(=O)Nc1cccc(-c2ccco2)c1` (centres unmarked) [compound 108], the pIC50 in assay [2] is > 9.00; in assay [3], 4.08; in assay [4], 4.12; in assay [5], 4.00 to 5.00; in assay [6] it was 4.44.

`COC(=O)c1cccc(N2N=C(C)C(C(=O)Nc3cccc(-c4cnccn4)c3)C2=O)c1` (centres unmarked) [compound 164] showed a negative-log IC50 (pIC50) in assay [1] of 6.00 to 7.00.

On to `CC1=NN(c2ccccc2)C(=O)C1C(=O)Nc1cccc(C(=O)N(C)C)c1` (centres unmarked) [compound 220], for which the negative logarithm of the IC50 (pIC50) in assay [1] was < 6.00.

Regarding `CC(=O)Cc1cccc(NC(=O)C2C(=O)N(c3ccccc3)N=C2C)c1` (centres unmarked) [compound 145], in assay [1], the pIC50 is 6.00 to 7.00.

As for `COC(=O)c1cccc(N2N=C(C)C(C(=O)Nc3cccc(-c4ncc[nH]4)c3)C2=O)c1` (centres unmarked) [compound 167, Methyl 3-(4-((3-(1H-imidazol-2-yl)phenyl)carbamoyl)-3-methyl-5-oxo-4,5-dihydro-1H-pyrazol-1-yl)benzoate], the pIC50 in assay [1] is 6.00 to 7.00.

On to `COc1ccc(N2N=C(C)C(C(=O)Nc3cccc(-c4ccco4)c3)C2=O)cc1` (centres unmarked) [compound 266, N-(3-(furan-2-yl)phenyl)-1-(4-methoxyphenyl)-3-methyl-5-oxo-4,5-dihydro-1H-pyrazole-4-carboxamide], for which the pIC50 was > 9.00 in assay [2]; 4.19 in assay [3]; 4.46 in assay [4]; 4.00 to 5.00 in assay [5]; 4.29 in assay [6].

For the compound `CC1=NN(c2ccccc2)C(=O)C1C(=O)Nc1cccc(C(C)(F)F)c1` (centres unmarked) [compound 141], the pIC50 is 8.00 to 9.00 in assay [2]; 3.83 in assay [3]; < 4.00 in assay [4]; 4.00 to 5.00 in assay [5]; 3.80 in assay [6].

`CC1=NN(c2ccc(C(F)(F)F)cc2)C(=O)C1C(=O)Nc1cccc(C(C)(F)F)c1` (centres unmarked) [compound 264, N-(3-(1,1-difluoroethyl)phenyl)-3-methyl-5-oxo-1-(4-(trifluoromethyl)phenyl)-4,5-dihydro-1H-pyrazole-4-carboxamide]: the pIC50 in assay [2] is 8.00 to 9.00; in assay [3], 4.28; in assay [4] it was 3.94; in assay [5], 5.00 to 6.00; in assay [6] it was 4.37.

For the compound `CCC(F)(F)c1cccc(NC(=O)C2C(=O)N(c3ccc4ccsc4c3)N=C2C)c1` (centres unmarked) [compound 485, 1-(benzo[b]thiophen-6-yl)-N-(3-(1,1-difluoropropyl)phenyl)-3-methyl-5-oxo-4,5-dihydro-1H-pyrazole-4-carboxamide], the negative logarithm of the IC50 (pIC50) in assay [7] is 8.22 to 11.00.

As to `COC(=O)c1cccc(N2N=C(C)C(C(=O)Nc3cccc(-c4ccco4)c3)C2=O)c1` (centres unmarked) [compound 269, methyl 3-(4-((3-(furan-2-yl)phenyl)carbamoyl)-3-methyl-5-oxo-4,5-dihydro-1H-pyrazol-1-yl)benzoate], the negative logarithm of the IC50 (pIC50) in assay [2] was > 9.00; in assay [3], 4.72; in assay [4] it was 4.35; in assay [5], 4.00 to 5.00; in assay [6], 4.55.

Consider `CCC(F)(F)c1cccc(NC(=O)C2C(=O)N(c3cnc(Cl)cn3)N=C2C)c1` (centres unmarked) [compound 489, 1-(5-chloropyrazin-2-yl)-N-(3-(1,1-difluoropropyl)phenyl)-3-methyl-5-oxo-4,5-dihydro-1H-pyrazole-4-carboxamide], for which the pIC50 in assay [7] is 8.22 to 11.00.

On to `CCC(F)(F)c1cccc(NC(=O)C2C(=O)N(c3cccc4occc34)N=C2C)c1` (centres unmarked) [compound 492, 1-(benzofuran-4-yl)-N-(3-(1,1-difluoropropyl)phenyl)-3-methyl-5-oxo-4,5-dihydro-1H-pyrazole-4-carboxamide], for which the pIC50 in assay [7] is 8.22 to 11.00.

Take `CCC(F)(F)c1cccc(NC(=O)C2C(=O)N(c3ccc(OC(F)F)cc3)N=C2C)n1` (centres unmarked) [compound 486, 1-(4-(difluoromethoxy)phenyl)-N-(6-(1,1-difluoropropyl)pyridin-2-yl)-3-methyl-5-oxo-4,5-dihydro-1H-pyrazole-4-carboxamide]: the pIC50 in assay [7] is 8.22 to 11.00.

`CCC(F)(F)c1cccc(NC(=O)C2C(=O)N(c3ccc(OC)cc3)N=C2C(C)=O)c1` (centres unmarked) [compound 529, 3-acetyl-N-(3-(1,1-difluoropropyl)phenyl)-1-(4-methoxyphenyl)-5-oxo-4,5-dihydro-1H-pyrazole-4-carboxamide]: the pIC50 in assay [7] is 6.00 to 7.00.
